Experimental data as given in US20090215752A1, “Compounds, preparation and therapeutic use thereof” (priority 2005, published 2009).

Tests used:
σ receptors [1] = test: Isolated organ bioassay, field-stimulated vas deferens: test for agonist activity; parameters: species or system guinea pig; settings: mean, n=2
Procedure: (§1) Segments of guinea pig vas deferens were suspended in 20-ml organ baths containing an oxygenated (95% O2 and 5% CO2) and pre-warmed (37° C.) physiological salt solution of the following composition (in mM): NaCl 118.0, KCl 4.7, MgSO4 1.2, CaCl2 2.5, KH2PO4 1.2, NaHCO3 25.0 and glucose 11.0 (pH 7.4). Yohimbine (1 μM), (−) sulpiride (1 μM), atropine (1 μM) and naloxone (1 μM) were also present throughout the experiments to block the α2-adrenergic, dopamine D2, muscarinic and opioid receptors, respectively. The tissues were connected to force transducers for isometric tension recordings. They were stretched to a resting tension of 0.5 g, allowed to equilibrate for at least 30 min during which time they were washed repeatedly and the tension readjusted. Thereafter, they were stimulated electrically using a constant current stimulator.
The tissues were exposed to a submaximal concentration of the reference agonist (+) SKF-10047 (100 μM) to verify responsiveness and to obtain a control response. Following washings and recovery of the twitch contraction amplitude, the tissues were exposed to increasing concentrations of substance or the same agonist. The different concentrations were added cumulatively and each was left in contact with the tissues until a stable response was obtained or for a maximum of 15 min. If an agonist-like response (enhancement of twitch contractions) was obtained, the reference antagonist rimcazole (10 μM) was tested against the highest concentration of substance to confirm the involvement of the σ receptors in this response.
(§2) The parameter measured was the maximum change in the twitch contraction amplitude induced by each compound concentration. The results are expressed as a percent variation of the control twitch contraction amplitude (mean values). The effects of substance tested at 1.0 10^−6 M, 3.0 10^−6 M and 1.0 10^−5 M for agonist and antagonist activities at the σ receptors in the guinea pig vas deferens bioassay are summarized in Tables 6-7 where those of the reference compounds are also reported.

σ receptors [2] = test: Isolated organ bioassay, field-stimulated vas deferens: test for antagonist activity; parameters: species or system guinea pig; settings: mean, n=2
Procedure: as §1
The tissues were exposed to a submaximal concentration of the reference agonist (+) SKF-10047 (100 μM) to obtain a control response. After stabilization of the (+) SKF-10047-induced response, increasing concentrations of substance or the reference antagonist rimcazole were added cumulatively. Each concentration was left in contact with the tissues until a stable response was obtained or for a maximum of 15 min. If it occurred, an inhibition of the (+) SKF-10047-induced increase in twitch contraction amplitude by substance indicated an antagonist activity at the σ receptors.
as §2

PDE5 = biological target: T1, PDE5 (Bos taurus, UniProt Q28156); test: Selectivity: inhibition of PDE5 (radioenzymatic assay); format: biochemical, bovine; settings: Table 2
T1 construct: PDE3, PDE4 and PDE5 from vascular smooth muscle; from tissue; host or cells: bovine aortic media (vascular smooth muscle), DEAE-Sephacel fraction
Procedure: 2.1.1. Isolation of Phosphodiesterases from Smooth Muscle A 3 g segment of bovine aortic media cut into pieces with scissors was homogenized with an ultra-turrax then a potter glass/glass homogenizer in 7 volumes by weight of buffer A containing a protease inhibitor cocktail (20 mM Tris-HCl, 0.25 M saccharose, 2 mM magnesium acetate, 1 mM dithiothreitol, 5 mM EGTA, 2000 U/ml aprotinin, 10 mg/l leupeptin and 10 mg/l soya trypsic inhibitor). The homogenizate was centrifuged at 105,000 g for 1 hour. The supernatant was loaded on a DEAE-Sephacel column (15×1.6 cm) pre-equilibrated with buffer B (buffer A without the saccharose, EGTA and protease inhibitors). The column was washed until there was no detectable absorption at 280 nm, then eluted with a linear gradient of NaCl (0-0.5 M) in buffer B. 3-ml fractions were collected and enzyme activity was determined under the conditions described hereinbelow to localize the different enzymes PDE1, PDE3, PDE4 and PDE5 which were aliquoted and frozen at −80° C. (Lugnier et al., Biochem. Phamacol., 1986, 35: 1746-1751). […]
Cyclic nucleotide phosphodiesterase activity was determined by a radioenzymatic method using tritium-labelled cyclic GMP or AMP (1 μM) as substrate (Lugnier et al., 1986). ^3H-labelled adenosine or guanosine monophosphate formed by hydrolysis of the radiolabelled cyclic nucleotide was then converted to ^3H-labelled adenosine or guanosine in a second reaction with one nucleotidase in excess. […] Nucleoside radioactivity was determined by liquid scintillation counting. […]
The activity of the compounds was evaluated on other phosphodiesterase isoforms, particularly basal state or calmodulin-activated PDE1 from vascular smooth muscle, PDE3, PDE4 and PDE5 from vascular smooth muscle. The results obtained are presented in Tables 1 and 2 hereinbelow and are expressed as the percentage inhibition of enzymatic activity produced by […] of the test compound.

sigma 1 receptors = biological target: T2, sigma 1 receptors (Cavia porcellus, UniProt Q60492); test: Sigma 1 receptor binding ([3H](+)pentazocine); settings: [3H](+)pentazocine 2 nM, guinea pig cerebral cortex, read-out: σ1 percentage inhibition at 10 μM
T2 construct: The sigma 1 receptors were isolated from guinea pig cerebral cortex; from tissue; host or cells: guinea pig cerebral cortex
T2 sequence (Q60492 whole entry): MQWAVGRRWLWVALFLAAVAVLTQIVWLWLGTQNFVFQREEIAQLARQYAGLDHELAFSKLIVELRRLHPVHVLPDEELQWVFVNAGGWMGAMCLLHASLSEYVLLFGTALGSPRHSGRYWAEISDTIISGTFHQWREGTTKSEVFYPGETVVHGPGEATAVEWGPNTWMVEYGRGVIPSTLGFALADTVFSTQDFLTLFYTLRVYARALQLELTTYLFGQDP
Procedure: The sigma 1 receptors were isolated from guinea pig cerebral cortex according to the method described in Bowen et al., 1993.
Sigma 1 receptor binding was determined by a radioligand method using tritium-labelled (+)pentazocine (2 nM) as substrate (Bowen et al., 1993). Sigma 2 receptor binding was determined by a radioligand method using tritium-labelled DTG (+300 nM (+)pentazocine) (5 nM) as substrate (Bowen et al., 1993). Ligand radioactivity was determined by liquid scintillation counting. For sigma 1 binding evaluation, ligand incubations were carried out for one hundred fifty minutes at 22° C. For sigma 2 binding evaluation, ligand incubations were carried out for one hundred twenty minutes at 22° C. The experiments were conducted in duplicate.
The specific ligand binding to the sigma receptors was defined as the difference between the total binding and the non specific binding determined in presence of an excess of unlabelled ligand. The results obtained are presented in Table 4 hereinbelow and are expressed as percent of control specific binding and as a percent inhibition of control specific binding obtained in presence of 10 μM of substance.

SMILES: COc1cc2c(c(OC)c1-c1ccccc1)C(c1cccc(C(N)=O)c1)=NCC(=O)N2C [Compound 17, 3-(6,8-Dimethoxy-1-methyl-2-oxo-7-phenyl-2,3-dihydro-1H-benzo[e][1,4]diazepin-5-yl)-benzamide]
- Response to the compound, variation of twitch contraction amplitude (σ receptors [1]; 1.0 10^−5 M): +33%
- Response to the compound, variation of twitch contraction amplitude (σ receptors [1]; 1.0 10^−6 M): 0%
- Response to the compound, variation of twitch contraction amplitude (σ receptors [1]; 3.0 10^−6 M): 0%
- Response to the highest concentration of the compound +Rimcazole (1.0 10^−5 M) (σ receptors [1]; highest compound concentration plus rimcazole 1.0 10^−5 M): −9%
- Response to (+)SKF-10,047 (1.0 10^−4 M) in the presence of the compound (σ receptors [2]; compound 1.0 10^−5 M): +169%
- Response to (+)SKF-10,047 (1.0 10^−4 M) in the presence of the compound (σ receptors [2]; compound 1.0 10^−6 M): +139%
- Response to (+)SKF-10,047 (1.0 10^−4 M) in the presence of the compound (σ receptors [2]; compound 3.0 10^−6 M): +139%
- inhibition at 10 µM (PDE5; 10 μM compound, read-out: PDE5 percentage inhibition at 10 μM): 22%
- IC50 (PDE5; value in square brackets): 42 µM
- inhibition at 10 µM (sigma 1 receptors): 93%
